Source: patent US20250129074A1, “CHIMERIC COMPOUND FOR TARGETED DEGRADATION OF ANDROGEN RECEPTOR PROTEIN, PREPARATION METHOD THEREFOR, AND MEDICAL USE THEREOF” (Jiangsu Hengrui Pharmaceuticals Co., Ltd., priority 2021, published 2025)
Read-outs that look alike come from different tables or passages of the source.

Experiments:
LNCaP cells = assay: Inhibition of LNCaP proliferation (CellTiter-Glo); format: cell-based; settings: Homo sapiens, 144 h, 0.1 nM R1881, six days; for Emax: read-out: Max (maximum proliferation inhibition rate)
Experimental: The plate was incubated in a 37° C., 5% CO2 cell incubator for three days. […] A blank control cell well containing 0.5% DMSO and a cell-free vehicle control well were set up. The plate was incubated in a 37° C., 5% CO2 cell incubator for six days.

androgen receptor (AR) = molecular target: T1, androgen receptor (AR) (Homo sapiens, UniProt P10275, T878A); assay: Degradation activity on androgen receptor in LNCaP cells (AR ELISA); format: cell-based; settings: for Dmax: read-out: Max (maximum AR degradation rate)
T1 construct: host or cells: LNCaP human prostate cancer cells
T1 sequence (P10275 1-920 T878A): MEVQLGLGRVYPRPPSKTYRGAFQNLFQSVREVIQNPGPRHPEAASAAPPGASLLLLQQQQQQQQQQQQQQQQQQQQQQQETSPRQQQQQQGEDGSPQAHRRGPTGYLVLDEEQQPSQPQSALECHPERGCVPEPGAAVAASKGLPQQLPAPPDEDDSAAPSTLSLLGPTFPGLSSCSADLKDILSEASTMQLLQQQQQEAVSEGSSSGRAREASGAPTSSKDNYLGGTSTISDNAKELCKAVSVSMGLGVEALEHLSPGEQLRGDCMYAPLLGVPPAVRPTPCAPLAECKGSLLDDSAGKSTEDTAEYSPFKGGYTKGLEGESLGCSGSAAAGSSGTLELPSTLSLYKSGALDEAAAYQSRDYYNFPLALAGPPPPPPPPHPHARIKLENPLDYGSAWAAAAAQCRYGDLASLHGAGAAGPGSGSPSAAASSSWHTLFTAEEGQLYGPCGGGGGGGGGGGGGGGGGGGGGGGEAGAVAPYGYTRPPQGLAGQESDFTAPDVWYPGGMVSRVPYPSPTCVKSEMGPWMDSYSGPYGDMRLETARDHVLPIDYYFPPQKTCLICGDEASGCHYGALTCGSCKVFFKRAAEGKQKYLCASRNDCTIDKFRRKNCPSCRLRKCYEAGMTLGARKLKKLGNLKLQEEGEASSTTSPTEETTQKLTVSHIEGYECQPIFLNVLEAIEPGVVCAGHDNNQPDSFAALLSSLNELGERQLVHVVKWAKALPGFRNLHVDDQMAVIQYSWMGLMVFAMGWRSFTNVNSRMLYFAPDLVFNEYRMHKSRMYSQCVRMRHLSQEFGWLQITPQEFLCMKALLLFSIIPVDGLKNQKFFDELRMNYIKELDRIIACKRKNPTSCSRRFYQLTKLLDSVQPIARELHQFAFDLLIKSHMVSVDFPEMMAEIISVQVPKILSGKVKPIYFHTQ
Experimental: The plate was incubated in a 37° C., 5% CO2 cell incubator for three days. […] A blank control cell well containing 0.5% DMSO was set up. The plate was incubated in a 37° C., 5% CO2 cell incubator for 24 hours. […] The lysate was well mixed by pipetting up and down and then centrifuged at 4000 rpm at 4° C. for 10 minutes. […] The plate was sealed and incubated in a 37° C. incubator for 1 hour. […] The plate was sealed and then incubated in a 37° C. incubator for 30 minutes.

[1] = Pharmacokinetic evaluation in SD rats; settings: both sexes, rat, in vivo, po, i.g., 2.0 mg/kg; for Vd/F: read-out: Apparent distribution volume Vz/F; for AUC(0-t): read-out: Area under curve AUC0-t; for CL/F: read-out: Clearance rate CL/F; for half-life: read-out: Half-life T½ (converted); for Cmax: read-out: Plasma concentration Cmax
Experimental: SD rats were used as test animals.
32 SD rats, provided by Vital River Laboratory Animal Co., Ltd., with an equal number of males and females, were evenly divided into 8 groups. The animals were fasted overnight and then intragastrically dosed.
The dose administered was 2.0 mg/kg, and the volume was 10.0 mL/kg.
The procedure starting from the blood collection to the centrifugation was performed under ice-bath conditions. Access to food was given 2 hours after administration.

[2] = 0.1 nM R1881, 24 hours, read-out: LNCaP DC50
[3] = read-out: LNCaP DC50, 0.1 nM R1881, 24 hours

SMILES | IC50 (LNCaP cells) [nM] | Emax (LNCaP cells) [%] | DC50 (androgen receptor (AR); [2]) [nM] | Dmax (androgen receptor (AR); 0.1 nM R1881, 24 hours) [%] | Vd/F [1] [L/kg] | AUC(0-t) [1] [ng·h/mL] | CL/F [1] [mL/min/kg] | half-life [1] [h] | Cmax [1] [ng/mL] | DC50 (androgen receptor (AR); [3]) [nM]
C[C@H]1CC2(CCN(c3ccc(C(=O)N4CCC(CN5CCN(c6cc(NC7CCC(=O)NC7=O)ccc6F)CC5)CC4)cc3)CC2)CN1c1ccc(C#N)c(Cl)c1 (stereo partly drawn) [Example 23, 2-Chloro-4-((3S)-8-(4-(4-((4-(5-((2,6-dioxopiperidin-3-yl)amino)-2-fluorophenyl)piperazin-1-yl)methyl)piperidine-1-carbonyl)phenyl)-3-methyl-2,8-diazaspiro[4.5]decan-2-yl)benzonitrile] | 41 | 76 | 6.1 | 96 | 26.3 | 703 | 51.2 | 5.93 | 81.6 | 
C[C@H]1CC2(CCN(c3ccc(C(=O)N4CCC(CN5CCN(c6cccc(NC7CCC(=O)NC7=O)c6)CC5)CC4)nc3)CC2)CN1c1ccc(C#N)c(Cl)c1 (stereo partly drawn) [Example 12, 2-Chloro-4-((3S)-8-(6-(4-((4-(3-((2,6-dioxopiperidin-3-yl)amino)phenyl)piperazin-1-yl)methyl)piperidine-1-carbonyl)pyridin-3-yl)-3-methyl-2,8-diazaspiro[4.5]decan-2-yl)benzonitrile] | 48 | 73 | 1.3 | 97 | 63.1 | 304 | 139 | 5.19 | 37.4 | 
C[C@H]1CC2(CCN(c3ccc(C(=O)N4CCC(CN5CCC(c6ccc(NC7CCC(=O)NC7=O)cc6)CC5)CC4)cc3)CC2)CN1c1ccc(C#N)c(Cl)c1 (stereo partly drawn) [Example 26, 2-Chloro-4-((3S)-8-(4-(4-((4-(4-((2,6-dioxopiperidin-3-yl)amino)phenyl)piperidin-1-yl)methyl)piperidine-1-carbonyl)phenyl)-3-methyl-2,8-diazaspiro[4.5]decan-2-yl)benzonitrile] | 7.8 | 63 | 2.5 | 94 |  |  |  |  |  | 
C[C@H]1CC2(CCN(c3ccc(C(=O)N4CCC5(CC4)CC(N4CCN(c6ccc(N7CCC(=O)NC7=O)cc6)CC4)C5)cc3F)CC2)CN1c1ccc(C#N)c(Cl)c1 [Example 30, (S)-2-Chloro-4-(8-(4-(2-(4-(4-(2,4-dioxotetrahydropyrimidin-1(2H)-yl)phenyl)piperazin-1-yl)-7-azaspiro[3.5]nonane-7-carbonyl)-2-fluorophenyl)-3-methyl-2,8-diazaspiro[4.5]decan-2-yl)benzonitrile] | 7.2 | 52 | 4.2 | 96 |  |  |  |  |  | 
Cc1c(N2CCC3(CCN(c4ccc(C(=O)N5CCC(CN6CCN(c7cccc(NC8CCC(=O)NC8=O)c7)CC6)CC5)cc4)CC3)C2)ccc(C#N)c1Cl (racemic) [Example 38, (±)-2-Chloro-4-(8-(4-(4-((4-(3-((2,6-dioxopiperidin-3-yl)amino)phenyl)piperazin-1-yl)methyl)piperidine-1-carbonyl)phenyl)-2,8-diazaspiro[4.5]decan-2-yl)-3-methylbenzonitrile] | 49 | 60 | 11.7 | 96 |  |  |  |  |  | 
C[C@H]1CC2(CCN(c3ccc(C(=O)N4CC(CN5CCN(c6cccc(NC7CCC(=O)NC7=O)c6)CC5)C4)cc3)CC2)CN1c1ccc(C#N)c(Cl)c1 (stereo partly drawn) [Example 14, 2-Chloro-4-((3S)-8-(4-(3-((4-(3-((2,6-dioxopiperidin-3-yl)amino)phenyl)piperazin-1-yl)methyl)azetidine-1-carbonyl)phenyl)-3-methyl-2,8-diazaspiro[4.5]decan-2-yl)benzonitrile] | 57 | 69 | 1.9 | 96 |  |  |  |  |  | 
C[C@H]1CC2(CCN(c3ccc(C(=O)N4CCC(CN5CC(N6CCN(c7ccc(N8CCC(=O)NC8=O)cc7)CC6)C5)CC4)cc3)CC2)CN1c1ccc(C#N)c(Cl)c1 [Example 8, (S)-2-Chloro-4-(8-(4-(4-((3-(4-(4-(2,4-dioxotetrahydropyrimidin-1(2H)-yl)phenyl)piperazin-1-yl)azetidin-1-yl)methyl)piperidine-1-carbonyl)phenyl)-3-methyl-2,8-diazaspiro[4.5]decan-2-yl)benzonitrile] | 9.8 | 31 | 1.6 | 85 |  |  |  |  |  | 
C[C@H]1CC2(CCN(c3ccc(C(=O)N4CCC5(CC4)CC(N4CCN(c6ccc(C7CCC(=O)NC7=O)cc6)CC4)C5)cc3)CC2)CN1c1ccc(C#N)c(Cl)c1 (stereo partly drawn) [Example 34, 2-Chloro-4-((3S)-8-(4-(2-(4-(4-(2,6-dioxopiperidin-3-yl)phenyl)piperazin-1-yl)-7-azaspiro[3.5]nonane-7-carbonyl)phenyl)-3-methyl-2,8-diazaspiro[4.5]decan-2-yl)benzonitrile] | 12 | 60 | 5 | 96 |  |  |  |  |  | 
C[C@H]1CC2(CCN(c3ccc(C(=O)N4CCC(N5CCN(c6ccc(C(=O)NC7CCC(=O)NC7=O)c(F)c6)CC5)CC4)cc3)CC2)CN1c1ccc(C#N)c(Cl)c1 (stereo partly drawn) [Example 1, 4-(4-(1-(4-((S)-2-(3-Chloro-4-cyanophenyl)-3-methyl-2,8-diazaspiro[4.5]decan-8-yl)benzoyl)piperidin-4-yl)piperazin-1-yl)-N-(2,6-dioxopiperidin-3-yl)-2-fluorobenzamide] | 183 | 63 |  | 89 |  |  |  |  |  | 10.6
C[C@H]1CC2(CCN(c3ccc(C(=O)N4CCC(CN5CCN(c6cccc(NC7CCC(=O)NC7=O)c6)CC5)CC4)nn3)CC2)CN1c1ccc(C#N)c(Cl)c1 (stereo partly drawn) [Example 13, 2-Chloro-4-((3S)-8-(6-(4-((4-(3-((2,6-dioxopiperidin-3-yl)amino)phenyl)piperazin-1-yl)methyl)piperidine-1-carbonyl)pyridazin-3-yl)-3-methyl-2,8-diazaspiro[4.5]decan-2-yl)benzonitrile] | 106 | 56 | 0.5 | 96 |  |  |  |  |  | 
C[C@H]1CC2(CCN(c3ccc(C(=O)N4CCN(CC(=O)Nc5cccc(NC6CCC(=O)NC6=O)c5)CC4)cc3)CC2)CN1c1ccc(C#N)c(Cl)c1 (stereo partly drawn) [Example 42, 2-(4-(4-((S)-2-(3-Chloro-4-cyanophenyl)-3-methyl-2,8-diazaspiro[4.5]decan-8-yl)benzoyl)piperazin-1-yl)-N-(3-((2,6-dioxopiperidin-3-yl)amino)phenyl)acetamide] | 39 | 50 | 4.2 | 90 |  |  |  |  |  | 
C[C@H]1CC2(CCN(C(=O)c3ccc(SC4CCN(C5CN(c6ccc(C(=O)NC7CCC(=O)NC7=O)c(F)c6)C5)CC4)nc3)CC2)CN1c1ccc(C#N)c(Cl)c1 (stereo partly drawn) [Example 5, 4-(3-(4-((5-((S)-2-(3-Chloro-4-cyanophenyl)-3-methyl-2,8-diazaspiro[4.5]decane-8-carbonyl)pyridin-2-yl)thio)piperidin-1-yl)azetidin-1-yl)-N-(2,6-dioxopiperidin-3-yl)-2-fluorobenzamide] | 189 | 72 |  | 86 |  |  |  |  |  | 30.5
